Laboratory results published in the supplement of paper PMC10307832.

What was measured:
Assay in all cases: relative viability (nuclei count vs DMSO), 5 days (fraction); higher = more cells survive
Omipalisib + Trametinib = compound: COc1ncc(-c2ccc3nccc(-c4ccnnc4)c3c2)cc1NS(=O)(=O)c1ccc(F)cc1F [Omipalisib] + CC(=O)Nc1cccc(-n2c(=O)n(C3CC3)c(=O)c3c(Nc4ccc(I)cc4F)n(C)c(=O)c(C)c32)c1 [Trametinib] (partner 0.02 µM)
Procedure, shortened: (§1)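 Relative viability equals treated-well nuclei counts divided by vehicle-well nuclei counts. Counts came from 4× images of lung cancer cell lines grown in 1536-well plates for 5 days after pin-tool dosing on the day after seeding. Dosing used one drug alone or a fixed anchor-drug dose plus five library-drug doses (not always all listed) in √10 steps, and values are medians of duplicate plates.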

Omipalisib + OSI-027 = compound: COc1ncc(-c2ccc3nccc(-c4ccnnc4)c3c2)cc1NS(=O)(=O)c1ccc(F)cc1F [Omipalisib] + COc1cccc2cc(-c3nc([C@H]4CC[C@H](C(=O)O)CC4)n4ncnc(N)c34)[nH]c12 [OSI-027] (partner 0.5 µM)
Procedure, shortened: as §1

Omipalisib + Lapatinib = compound: COc1ncc(-c2ccc3nccc(-c4ccnnc4)c3c2)cc1NS(=O)(=O)c1ccc(F)cc1F [Omipalisib] + CS(=O)(=O)CCNCc1ccc(-c2ccc3ncnc(Nc4ccc(OCc5cccc(F)c5)c(Cl)c4)c3c2)o1 [Lapatinib] (partner 2 µM)
Procedure, shortened: as §1

Omipalisib + Dasatinib = compound: COc1ncc(-c2ccc3nccc(-c4ccnnc4)c3c2)cc1NS(=O)(=O)c1ccc(F)cc1F [Omipalisib] + Cc1nc(Nc2ncc(C(=O)Nc3c(C)cccc3Cl)s2)cc(N2CCN(CCO)CC2)n1 [Dasatinib] (partner 0.075 µM)
Procedure, shortened: as §1

Omipalisib + Decitabine = compound: COc1ncc(-c2ccc3nccc(-c4ccnnc4)c3c2)cc1NS(=O)(=O)c1ccc(F)cc1F [Omipalisib] + Nc1ncn([C@H]2C[C@H](O)[C@@H](CO)O2)c(=O)n1 [Decitabine] (partner 2 µM)
Procedure, shortened: as §1

Omipalisib + Vorinostat = compound: COc1ncc(-c2ccc3nccc(-c4ccnnc4)c3c2)cc1NS(=O)(=O)c1ccc(F)cc1F [Omipalisib] + O=C(CCCCCCC(=O)Nc1ccccc1)NO [Vorinostat] (partner 1 µM)
Procedure, shortened: as §1

Cell Line | relative viability (Omipalisib + Trametinib; first compound 0.0003 µM) | relative viability (Omipalisib + Trametinib; first compound 0.003 µM) | relative viability (Omipalisib + Trametinib; first compound 0.03 µM) | relative viability (Omipalisib + OSI-027; first compound 0.0003 µM) | relative viability (Omipalisib + OSI-027; first compound 0.003 µM) | relative viability (Omipalisib + OSI-027; first compound 0.03 µM) | relative viability (Omipalisib + Lapatinib; first compound 0.0003 µM) | relative viability (Omipalisib + Lapatinib; first compound 0.003 µM) | relative viability (Omipalisib + Lapatinib; first compound 0.03 µM) | relative viability (Omipalisib + Dasatinib; first compound 0.0003 µM) | relative viability (Omipalisib + Dasatinib; first compound 0.003 µM) | relative viability (Omipalisib + Dasatinib; first compound 0.03 µM) | relative viability (Omipalisib + Decitabine; first compound 0.0003 µM) | relative viability (Omipalisib + Decitabine; first compound 0.003 µM) | relative viability (Omipalisib + Decitabine; first compound 0.03 µM) | relative viability (Omipalisib + Vorinostat; first compound 0.0003 µM) | relative viability (Omipalisib + Vorinostat; first compound 0.003 µM) | relative viability (Omipalisib + Vorinostat; first compound 0.03 µM)
H3255 | 0.56 | 0.421 | 0.277 | 0.546 | 0.45 | 0.299 | 0.219 | 0.193 | 0.203 | 0.336 | 0.325 | 0.257 | 0.534 | 0.471 | 0.305 | 0.811 | 0.623 | 0.269
HARA | 0.694 | 0.301 | 0.188 | 0.47 | 0.19 | 0.161 | 0.613 | 0.659 | 0.326 | 0.291 | 0.288 | 0.187 | 0.471 | 0.394 | 0.258 | 0.453 | 0.459 | 0.201
HCC-15 | 0.32 | 0.207 | 0.165 | 0.628 | 0.357 | 0.413 | 0.81 | 0.779 | 0.795 | 0.552 | 0.349 | 0.42 | 0.591 | 0.394 | 0.372 | 0.816 | 0.651 | 0.489
HCC-78 | 0.596 | 0.558 | 0.275 | 0.37 | 0.35 | 0.288 | 0.329 | 0.567 | 0.386 | 0.359 | 0.313 | 0.219 | 0.623 | 0.462 | 0.344 | 0.334 | 0.337 | 0.246
HCC-366 | 0.245 | 0.152 | 0.0615 | 1.18 | 0.35 | 0.203 | 0.898 | 0.496 | 0.186 | 0.575 | 0.2 | 0.179 | 0.285 | 0.217 | 0.105 | 0.394 | 0.223 | 0.113
HCC-827 | 0.472 | 0.37 | 0.202 | 0.769 | 0.531 | 0.254 | 0.192 | 0.158 | 0.187 | 0.194 | 0.233 | 0.147 | 0.298 | 0.244 | 0.239 | 0.864 | 0.682 | 0.438
HOP-62 | 0.372 | 0.248 | 0.198 | 0.93 | 0.56 | 0.576 | 0.946 | 0.901 | 0.702 | 0.629 | 0.458 | 0.27 | 0.211 | 0.264 | 0.199 | 0.563 | 0.511 | 0.323
LC-2-ad | 0.86 | 0.754 | 0.605 | 0.732 | 0.501 | 0.439 | 0.933 | 0.784 | 0.745 | 0.503 | 0.47 | 0.168 | 0.812 | 0.739 | 0.63 | 0.67 | 0.575 | 0.303
